Tests used:
[1] = Aqueous solubility of cilostazol polymorphic form; type: physicochemical; details: Form A as prepared by the procedures of the '479 patent
[2] = Bioavailability of cilostazol polymorphic form; type: in vivo; details: Form A as prepared by the procedures of the '479 patent
[3] = Relative solubility suggested by DSC thermogram (lower melting point, crystal packing forces); type: physicochemical; details: suggested by the lower melting point in DSC (FIG. 8)
Description: (§1) Characterization of Form A of cilostazol, Form B of cilostazol, and Form C of cilostazol was further completed using DSC thermograms, shown in FIGS. 3, 4, and 5, respectively, with DSC thermograms for combinations of Form A and Form B; Form B and Form C; and Forms A, B, and C are shown in FIGS. 6, 7, and 8 respectively. DSC data were generated using a Mettler-Toledo DSC 821^e (Columbus, Ohio) with a Julabo FT900 intercooler chiller (Julabo Company; Allentown, Pa.). In general, samples were analyzed in a vented, sealed aluminum pan. Because the endothermic peak may vary depending upon the rate of heating and the calibration and precision of the instrument, with the amount of peak variation dependent upon the heating rate used, all thermograms included herein were run under the same, consistent conditions: heating at 10° C. per minute under a nitrogen purge at 40 mL/minute.
FIG. 8 illustrates a DSC thermogram for the combination of Form A, Form B and Form C having a second heating cycle with a maximum temperature of about 110° C. with a holding time of about 30 minutes. The peaks in the third heating cycle show a Form A to Form B to Form C peak area ratio of approximately 8:2:1, respectively, with the relative amount of Form A, Form B and Form C further variable on the heat of enthalpy of each polymorphic form.

[4] = Stability of the crystalline form; type: physicochemical
[5] = DSC heating of disturbed/stressed sample: solid state phase transformation to Form A; type: physicochemical; details: sample disturbed (scratching/stressed), DSC from 30° C. to approximately 200° C. at 10° C. per minute
Description: as §1, with “mL/minute. The resultant sample of Example 1A was disturbed with scratching, which caused the cilostazol sample to undergo a solid state phase transformation at approximately 119° C. followed by an endotherm of melt at approximately 160° C. (Form A) during heating by DSC from 30° C. to approximately 200° C. at 10° C. per minute. When the sample is stressed and reheated (as detailed in Example 2A), the sample undergoes a solid state phase transformation at approximately 147° C. followed by an endotherm of melt at about 160° C. […]” for “mL/minute.”

SMILES: O=C1CCc2cc(OCCCCc3nnnn3C3CCCCC3)ccc2N1 [Form A, 6-[4-(1-cyclohexyl-1H-tetrazol-5-yl)butoxy]-3,4-dihydro-2(1H)-quinolinone]
- aqueous solubility [1]: low aqueous solubility
- bioavailability [2]: low bioavailability

SMILES: O=C1CCc2cc(OCCCCc3nnnn3C3CCCCC3)ccc2N1 [Form B, 6-[4-(1-cyclohexyl-1H-tetrazol-5-yl)butoxy]-3,4-dihydro-2(1H)-quinolinone]
- solubility relative to Form A [3]: more soluble than Form A
- stability of the polymorphic form [4]: stable
- solid state phase transformation temperature (to Form A) ([5]; listed as Example 1A): approximately 119 °C

SMILES: O=C1CCc2cc(OCCCCc3nnnn3C3CCCCC3)ccc2N1 [Form C, 6-[4-(1-cyclohexyl-1H-tetrazol-5-yl)butoxy]-3,4-dihydro-2(1H)-quinolinone]
- solid state phase transformation temperature (to Form A) ([5]; listed as Example 2A): approximately 147 °C
